Test results: patent US20240382629A1, “HETEROBIVALENT AND HOMOBIVALENT AGENTS TARGETING FIBROBLAST ACTIVATION PROTEIN ALPHA AND/OR PROSTATE-SPECIFIC MEMBRANE ANTIGEN” (The Johns Hopkins University, priority 2021, published 2024)

Tested on: U87 tumor
Experiment: PET imaging and tissue biodistribution in U87 tumor-bearing mice
Assay type: in vivo, mouse
Design: Biodistribution: Saliv. Gland: unit not given here
Conditions: for Biodistribution: Bladder / Biodistribution: Blood / Biodistribution: Bone / Biodistribution: Fat / Biodistribution: Heart / Biodistribution: Kidney / Biodistribution: Lacrimal gland / Biodistribution: Liver / Biodistribution: Lung / Biodistribution: Muscle / Biodistribution: Pancreas / Biodistribution: Salivary Glands / Biodistribution: Small Intestine / Biodistribution: Spleen / Biodistribution: Stomach / Biodistribution: U87 / Biodistribution: Lacrim Gland / Biodistribution: Sm Intest: in %ID/g
Procedure: Cell uptake assays, flow cytometry, and IHC were performed as described previously. Banerjee et al., 2019; Nimmagadda et al., 2018. PET imaging and biodistribution Sequential PET imaging and biodistribution studies were conducted to quantify and validate PET imaging data. Briefly, tumor-bearing mice were administrated approximately 7.4 MBq of radiotracer in 150 μL saline via tail-vein injection. They were randomized into the indicated groups of 3-4 mice before radiotracer injection.
In Experiment 1, bilateral xenografts of U87 (right flank) and PSMA+ PC3 PIP (left flank) tumors were established in male NSG mice (n=3), which underwent imaging followed by biodistribution over 24 h. […] A biodistribution study was further conducted with U87 tumors at 2 h post-injection (n=3) to compare the tissue distribution properties of ^64Cu-FP-L1 and ^64Cu-FAPI-04.

[1] = 2 h + 10 nmol Sri-06-98, dose 200 μCi, n=3
[2] = untitled table, radiolabel and time not given

Structure (SMILES): N#C[C@@H]1CCCN1C(=O)CNC(=O)c1ccnc2ccc(OCCCNC(=O)CCc3cn(CCCC[C@H](NC(=O)CN4CCN(CC(=O)O)CCN(CC(=O)O)CC4)C(=O)NCCCOc4ccc5nccc(C(=O)NCC(=O)N6CCC[C@H]6C#N)c5c4)nn3)cc12 [^64Cu-Sri-06-98, metal not drawn]
- Biodistribution: Bladder [1]: 5.61 ± 7.96
- Biodistribution: Blood [1]: 0.27 ± 0.08
- Biodistribution: Bone [1]: 0.59 ± 0.65
- Biodistribution: Fat [1]: 0.07 ± 0.02
- Biodistribution: Heart [1]: 0.17 ± 0.01
- Biodistribution: Kidney [1]: 1.57 ± 0.00
- Biodistribution: Lacrimal gland [1]: 0.16 ± 0.02
- Biodistribution: Liver [1]: 0.68 ± 0.16
- Biodistribution: Lung [1]: 0.49 ± 0.01
- Biodistribution: Muscle [1]: 0.09 ± 0.02
- Biodistribution: Pancreas [1]: 0.21 ± 0.04
- Biodistribution: Salivary Glands [1]: 0.34 ± 0.02
- Biodistribution: Small Intestine [1]: 0.54 ± 0.08
- Biodistribution: Spleen [1]: 0.25 ± 0.01
- Biodistribution: Stomach [1]: 0.31 ± 0.02
- Biodistribution: U87 [1]: 2.70 ± 1.00
- Biodistribution: Bladder (2 h, dose 200 μCi, n=3): 1.63 ± 0.23
- Biodistribution: Blood (2 h, dose 200 μCi, n=3): 3.49 ± 0.18
- Biodistribution: Bone (2 h, dose 200 μCi, n=3): 2.91 ± 0.36
- Biodistribution: Fat (2 h, dose 200 μCi, n=3): 0.47 ± 0.02
- Biodistribution: Heart (2 h, dose 200 μCi, n=3): 3.70 ± 0.22
- Biodistribution: Kidney (2 h, dose 200 μCi, n=3): 2.00 ± 0.52
- Biodistribution: Lacrimal gland (2 h, dose 200 μCi, n=3): 5.07 ± 2.20
- Biodistribution: Liver (2 h, dose 200 μCi, n=3): 2.80 ± 0.31
- Biodistribution: Lung (2 h, dose 200 μCi, n=3): 2.62 ± 0.11
- Biodistribution: Muscle (2 h, dose 200 μCi, n=3): 2.46 ± 0.20
- Biodistribution: Pancreas (2 h, dose 200 μCi, n=3): 4.59 ± 2.38
- Biodistribution: Salivary Glands (2 h, dose 200 μCi, n=3): 8.88 ± 1.37
- Biodistribution: Small Intestine (2 h, dose 200 μCi, n=3): 2.97 ± 0.33
- Biodistribution: Spleen (2 h, dose 200 μCi, n=3): 1.51 ± 0.14
- Biodistribution: Stomach (2 h, dose 200 μCi, n=3): 2.09 ± 1.00
- Biodistribution: U87 (2 h, dose 200 μCi, n=3): 7.64 ± 2.12
- Biodistribution: Bladder (4 h, dose 200 μCi, n=3): 5.56 ± 1.53
- Biodistribution: Blood (4 h, dose 200 μCi, n=3): 2.54 ± 0.37
- Biodistribution: Bone (4 h, dose 200 μCi, n=3): 2.69 ± 0.14
- Biodistribution: Fat (4 h, dose 200 μCi, n=3): 0.50 ± 0.12
- Biodistribution: Heart (4 h, dose 200 μCi, n=3): 2.40 ± 0.12
- Biodistribution: Kidney (4 h, dose 200 μCi, n=3): 1.67 ± 0.03
- Biodistribution: Lacrimal gland (4 h, dose 200 μCi, n=3): 4.54 ± 0.44
- Biodistribution: Liver (4 h, dose 200 μCi, n=3): 2.68 ± 0.08
- Biodistribution: Lung (4 h, dose 200 μCi, n=3): 2.04 ± 0.10
- Biodistribution: Muscle (4 h, dose 200 μCi, n=3): 2.13 ± 0.14
- Biodistribution: Pancreas (4 h, dose 200 μCi, n=3): 4.54 ± 0.62
- Biodistribution: Salivary Glands (4 h, dose 200 μCi, n=3): 5.92 ± 0.57
- Biodistribution: Small Intestine (4 h, dose 200 μCi, n=3): 2.69 ± 0.42
- Biodistribution: Spleen (4 h, dose 200 μCi, n=3): 1.14 ± 0.16
- Biodistribution: Stomach (4 h, dose 200 μCi, n=3): 1.60 ± 0.36
- Biodistribution: U87 (4 h, dose 200 μCi, n=3): 11.15 ± 1.49

Structure (SMILES): N#C[C@@H]1CCCN1C(=O)CNC(=O)c1ccnc2ccc(OCCCNC(=O)CCOCCOCCOCCNC(=O)C(CCNC(=O)c3ccc(F)nc3)NC(=O)CN3CCN(CC(=O)O)CCN(CC(=O)O)CCN(CC(=O)O)CC3)cc12 (some centres unmarked) [SRI-08-27]
- Biodistribution: Saliv. Gland [2]: 6.40 ± 1.30
- Biodistribution: Bladder [2]: 1.18 ± 0.13
- Biodistribution: Blood [2]: 12.65 ± 2.31
- Biodistribution: Bone [2]: 2.83 ± 0.36
- Biodistribution: Fat [2]: 0.45 ± 0.16
- Biodistribution: Heart [2]: 5.39 ± 1.11
- Biodistribution: Kidney [2]: 3.98 ± 0.66
- Biodistribution: Lacrim Gland [2]: 4.62 ± 1.02
- Biodistribution: Liver [2]: 5.15 ± 0.75
- Biodistribution: Lung [2]: 7.76 ± 1.31
- Biodistribution: Muscle [2]: 1.55 ± 0.43
- Biodistribution: Pancreas [2]: 7.20 ± 3.00
- Biodistribution: Sm Intest [2]: 6.28 ± 2.63
- Biodistribution: Spleen [2]: 2.59 ± 0.49
- Biodistribution: Stomach [2]: 1.83 ± 0.66
- Biodistribution: U87 [2]: 6.56 ± 1.76

Structure (SMILES): N#C[C@@H]1CCCN1C(=O)CNC(=O)c1ccnc2ccc(OCCCN3CC4CN(C(=O)C(CCNC(=O)c5ccc(F)nc5)NC(=O)CN5CCN(CC(=O)O)CCN(CC(=O)O)CCN(CC(=O)O)CC5)CC4C3)cc12 (some centres unmarked) [SRI-08-37]
- Biodistribution: Saliv. Gland [2]: 11.70 ± 1.32
- Biodistribution: Bladder [2]: 4.28 ± 4.14
- Biodistribution: Blood [2]: 4.59 ± 0.50
- Biodistribution: Bone [2]: 6.37 ± 0.98
- Biodistribution: Fat [2]: 1.04 ± 0.55
- Biodistribution: Heart [2]: 2.24 ± 1.02
- Biodistribution: Kidney [2]: 2.82 ± 0.06
- Biodistribution: Lacrim Gland [2]: 9.11 ± 2.71
- Biodistribution: Liver [2]: 2.02 ± 0.13
- Biodistribution: Lung [2]: 2.96 ± 0.38
- Biodistribution: Muscle [2]: 2.74 ± 0.18
- Biodistribution: Pancreas [2]: 6.76 ± 1.47
- Biodistribution: Sm Intest [2]: 3.36 ± 0.76
- Biodistribution: Spleen [2]: 1.45 ± 0.17
- Biodistribution: Stomach [2]: 1.85 ± 0.19
- Biodistribution: U87 [2]: 20.43 ± 1.73

Structure (SMILES): N#CC1CCCN1C(=O)CNC(=O)c1ccnc2ccc(OCCCNC(=O)CCc3cn(CC[C@H](NC(=O)c4ccc(F)nc4)C(=O)NCCNC(=O)CN4CCN(CC(=O)O)CCN(CC(=O)O)CCN(CC(=O)O)CC4)nn3)cc12 (some centres unmarked) [SRI-07-56]
- Biodistribution: Saliv. Gland [2]: 7.59 ± 3.44
- Biodistribution: Bladder [2]: 7.14 ± 3.21
- Biodistribution: Blood [2]: 20.47 ± 8.29
- Biodistribution: Bone [2]: 4.47 ± 1.71
- Biodistribution: Fat [2]: 0.49 ± 0.23
- Biodistribution: Heart [2]: 7.16 ± 3.22
- Biodistribution: Kidney [2]: 5.16 ± 2.02
- Biodistribution: Lacrim Gland [2]: 4.32 ± 1.56
- Biodistribution: Liver [2]: 6.87 ± 2.54
- Biodistribution: Lung [2]: 10.70 ± 4.41
- Biodistribution: Muscle [2]: 2.06 ± 0.95
- Biodistribution: Pancreas [2]: 10.62 ± 3.62
- Biodistribution: Sm Intest [2]: 9.55 ± 3.91
- Biodistribution: Spleen [2]: 4.21 ± 1.74
- Biodistribution: Stomach [2]: 3.73 ± 1.63
- Biodistribution: U87 [2]: 5.67 ± 2.42

Structure (SMILES): N#C[C@@H]1CCCN1C(=O)CNC(=O)c1ccnc2ccc(OCCCNC(=O)C(CCNC(=O)c3ccc(F)nc3)NC(=O)CN3CCN(CC(=O)O)CCN(CC(=O)O)CCN(CC(=O)O)CC3)cc12 (some centres unmarked) [SRI-08-15]
- Biodistribution: Saliv. Gland [2]: 8.95 ± 0.98
- Biodistribution: Bladder [2]: 1.67 ± 0.32
- Biodistribution: Blood [2]: 3.92 ± 0.39
- Biodistribution: Bone [2]: 5.97 ± 1.02
- Biodistribution: Fat [2]: 0.92 ± 0.21
- Biodistribution: Heart [2]: 1.97 ± 0.34
- Biodistribution: Kidney [2]: 2.65 ± 0.27
- Biodistribution: Lacrim Gland [2]: 8.01 ± 1.01
- Biodistribution: Liver [2]: 2.73 ± 0.64
- Biodistribution: Lung [2]: 2.90 ± 0.24
- Biodistribution: Muscle [2]: 3.03 ± 0.63
- Biodistribution: Pancreas [2]: 7.33 ± 1.73
- Biodistribution: Sm Intest [2]: 3.85 ± 0.77
- Biodistribution: Spleen [2]: 1.59 ± 0.57
- Biodistribution: Stomach [2]: 1.42 ± 0.56
- Biodistribution: U87 [2]: 20.41 ± 3.28

Structure (SMILES): N#CC1CCCN1C(=O)CNC(=O)c1ccnc2ccc(OCCCNC(=O)CCc3cn(CCCC[C@H](NC(=O)c4ccc(F)nc4)C(=O)NCCNC(=O)CN4CCN(CC(=O)O)CCN(CC(=O)O)CCN(CC(=O)O)CC4)nn3)cc12 (some centres unmarked) [SRI-08-35]
- Biodistribution: Saliv. Gland [2]: 7.49 ± 1.17
- Biodistribution: Bladder [2]: 1.59 ± 0.32
- Biodistribution: Blood [2]: 15.40 ± 1.08
- Biodistribution: Bone [2]: 3.75 ± 0.43
- Biodistribution: Fat [2]: 0.56 ± 0.20
- Biodistribution: Heart [2]: 7.04 ± 0.93
- Biodistribution: Kidney [2]: 5.47 ± 0.73
- Biodistribution: Lacrim Gland [2]: 5.27 ± 1.52
- Biodistribution: Liver [2]: 6.13 ± 0.67
- Biodistribution: Lung [2]: 9.40 ± 1.61
- Biodistribution: Muscle [2]: 1.94 ± 0.74
- Biodistribution: Pancreas [2]: 10.46 ± 2.88
- Biodistribution: Sm Intest [2]: 8.20 ± 2.20
- Biodistribution: Spleen [2]: 3.08 ± 0.27
- Biodistribution: Stomach [2]: 2.17 ± 0.30
- Biodistribution: U87 [2]: 7.84 ± 1.95
